According to patent US20180207228A1, “PEPTIDE COMBINATIONS AND USES THEREOF FOR TREATING GRASS ALLERGY” (ALK-Abelló A/S, priority 2015, published 2018):
Where no end group is shown, it is not given here.

Experiments:
[1] = Peptide solubility by visual inspection; type: physicochemical; on Visual inspection after centrifugation pH 7: key: ok: clear solution; +: very small precipitation only visible with a magnifier; ++: precipitation/turbid solution; +++: more precipitation/turbid solution
Experimental: Water (pH 3-5) • 2. 250 mM D-Mannitol and 25 mM sodium acetate, pH 4.5 • 3. 250 mM D-Mannitol and 25 mM sodium phosphate, pH 7.0 • 4. […] Water (pH 3-5) • 2. 250 mM D-Mannitol and 25 mM sodium acetate, pH 4.5 • 3. 250 mM D-Mannitol and 25 mM sodium phosphate, pH 7.0 • 4. […] A subset of the peptides was selected as candidate peptides for a final peptide mixture. […] During the solubility studies the peptide-containing solutions were inspected visually before and after filtration for turbidity, and presence of particles/aggregates. In addition, presence of turbidity/particles/aggregates was also detected by optical density (OD) or absorbance of filtered material, but might also be detected by size-exclusion chromatography. Furthermore, Sub-visual particles may also be detected by dynamic light scattering (DLS) analysis on filtered and non-filtered peptide containing solutions. Samples were furthermore subjected to centrifugation to allow for the possible visual inspection of pelleted material.

[2] = system: allergen specific T cells; test: T cell proliferation assay (72 h) on donor derived T cell lines (TCL02/TCL03); type: cell-based, human; details: for T cell response in % of the donors tested: single peptide; for Proliferation % donor coverage (TCL-02 DK1): T cell lines TCL-02 DK1, 30 donors, hit criteria SI>=2, CPM>=1000; for Proliferation strength (TCL-02 DK1): T cell lines TCL-02 DK1, strength of response (average relative magnitude)
Procedure, shortened: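 CD8-depleted PBMCs from grass-allergic donors stimulated with natural grass allergen mix (nPhl p 1 0.5 μg/ml) to raise T cell lines; restimulated with irradiated APCs, allergens or PHA-P (0.5 μg/ml) plus rIL-2. Proliferation to overlapping 20-mer and selected 15-mer grass peptides tested with TCL02 (day 24) or TCL03 (day 34).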

[3] = 3 mg/mL, acetate salt, non-filtered, 250 mM D-Mannitol and 25 mM sodium phosphate, pH 7.0

Substance | solubility in aqueous solutions [1] | T cell response in % of the donors tested [2] [%] | solubility, 1st round of solubility screening [1] | Proliferation % donor coverage (TCL-02 DK1) [2] [%] | Proliferation strength (TCL-02 DK1) [2] | Visual inspection after 60 min pH 7 [1, 3] | Visual inspection after 60 min pH 4.5 ([1]; 3 mg/mL, acetate salt, non-filtered, 250 mM D-Mannitol and 25 mM sodium acetate, pH 4.5) | Visual inspection after centrifugation pH 4.5 ([1]; 3 mg/mL, acetate salt, non-filtered, 250 mM D-Mannitol and 25 mM sodium acetate, pH 4.5, after centrifugation) | Visual inspection after centrifugation pH 7 ([1]; 3 mg/mL, acetate salt, non-filtered, 250 mM D-Mannitol and 25 mM sodium phosphate, pH 7.0, after centrifugation)
AYESYKFIPALEAAVKQAYA-OH [peptide 285] | surprisingly good solubility in aqueous solutions | ~50 |  |  |  |  |  |  | 
DKYRTFVATFGAASNKAFAE-OH [peptide 231] |  | ~40 | soluble |  |  |  |  |  | 
PANDKFTVFEAAFNNAIKAS-OH [compound 70] |  |  | soluble | 46.67 | 8.10 |  |  |  | 
STGGAYESYKFIPALEAAVK-OH [compound 71] | surprisingly good solubility in aqueous solutions | ~50 | soluble | 46.67 | 8.20 | tread + |  |  | 
TDDNEEPIAPYHFDLSGHAF-OH [peptide 204] | surprisingly good solubility in aqueous solutions | ~40 | soluble |  |  |  |  |  | 
VATLSEALRIIAGTLEVHAV-OH [compound 67] |  |  |  | 43.33 | 7.30 |  |  |  | 
WGAIWRIDTPDKLTGPFTVR-OH [peptide 211] | surprisingly good solubility in aqueous solutions | ~40 | soluble |  |  | particles + | + particles, | ++ | +++
